We go through one molecule from patent US11629141B2, “Proteasome inhibitors and uses thereof” (CORNELL UNIVERSITY, priority 2015, dated 2023).

“Also recorded” adds a separate entry of the source. Like-named read-outs stand apart in the source and are kept apart here.

The target of assay [1] is T1, human immunoproteasome β5i (Homo sapiens, UniProt P28062).
T1 construct: purchased Boston Biochem Inc
Put plainly: IC50 against chymotryptic β5i activity of human immunoproteasome (96-well plate, Ac-ANW-AMC). The assay is classed as biochemical. As to the method: A 96-well-plate assays were used to determine the IC50s against the chymotryptic β5 activities of the proteasomes. Both human constitutive proteasome and immunoproteasome were purchased from Boston Biochem Inc. 1 μL of 100× compound in DMSO at designated concentrations were spotted at the bottom of the wells. DMSO was used as a control. […] The hydrolysis of the substrate over time in each well was monitored at excitation 360 nm, emission 460 nm for 90 minutes. IC50s were estimated by fitting the velocities of hydrolysis against compound concentrations using PRISM. […] SDS (0.02%) was used as activator, and 0.01% BSA was used in the reaction buffer.

In assay [2] the target is T2, human constitutive proteasome β5c (Homo sapiens, UniProt P28074).
T2 construct: purchased Boston Biochem Inc
Put plainly: IC50 against chymotryptic β5c activity of human constitutive proteasome (96-well plate, Suc-LLVY-AMC). The class given is biochemical. As to the method:
A 96-well-plate assays were used to determine the IC50s against the chymotryptic β5 activities of the proteasomes. Both human constitutive proteasome and immunoproteasome were purchased from Boston Biochem Inc. 1 μL of 100× compound in DMSO at designated concentrations were spotted at the bottom of the wells. DMSO was used as a control. Final concentrations of the inhibitors were from 100 μM to 0.098 μM. The hydrolysis of the substrate over time in each well was monitored at excitation 360 nm, emission 460 nm for 90 minutes. IC50s were estimated by fitting the velocities of hydrolysis against compound concentrations using PRISM. […] Suc-LLVY-AMC was used for βc at final concentration of 25 μM, and Ac-ANW-AMC for b5i at final concentration of 15 μM. SDS (0.02%) was used as activator, and 0.01% BSA was used in the reaction buffer.
The foregoing features of these AsnEDA encouraged a further round of SAR studies (Table 5) based on varying the carboxylic acid at the ethylenediamine, the N-cap at the Asn, and the side chain of the Asn, based on PKS21004. All compounds listed in the Table 5 were synthesized as described in Examples 6-77. All final compounds were confirmed by NMR and HRMS. IC50s of all compounds against β5i and β5c (Table 5), β1i, β2i, β1c and β2c were determined following a reported method (Lin et al., “N,C-Capped Dipeptides With Selectivity for Mycobacterial Proteasome Over Human Proteasomes: Role of S3 and S1Binding Pockets,” J Am Chem Soc. 135:9968-9971 (2013), which is hereby incorporated by reference in its entirety). […] The [1,1′-biphenyl]-3-carboxamide of PKS21004 was then modified with the following substituents: 4′-fluoro (PKS21026), 4′-cyano (PKS21028), 4-fluoro (PKS21196), 4,3′-difluoro (PKS21195) and 4,2′-difluoro (PKS21187).

In a further assay the target is T3, hu i-20S β5i (Homo sapiens, UniProt P28062).
T3 construct: purchased Boston Biochem Inc
Put plainly: Kinetic analysis, substrate titration of hu i-20S steady state velocities. The assay is classed as biochemical. As for the experimental part:
FIGS. 1A-1E are graphs showing inhibition modality of PKS21004 against human proteasomes. Washout of c-20S from the preincubated c-20S and […] to recover the β5c activity (FIG. 1A). Substrate titration of hu i-20S (FIG. 1B) and c-20S (FIG. 1D) steady state velocities in the presence of PKS21004 at the concentrations indicated next to each curve. Data as in (FIG. 1B) were plotted double reciprocal in (FIG. 1C), and (FIG. 1D) in (FIG. 1E).
A washout experiment was used to confirm the reversibility of this class of proteasome inhibitors, as expected from their non-covalent chemistry.

Another assay has as its system Plasmodium falciparum. Briefly: Growth of Plasmodium falciparum in red blood cells (SYBR Green, 72 hours). The class given is cell-based. The note with it: Erythrocyte, P.f. 3D7, growth in red blood cells, read-out: EC50 (nM) (P.f.). As for the experimental part:
Continuous in vitro cultures of Plasmodium falciparum: were maintained in human red blood cells (RBC) diluted to a hematocrit of 5% in RPMI 1640 medium with HEPES and Hypoxanthine and completed with 0.5% Albumax II (Invitrogen), 0.25% sodium bicarbonate, and 0.1 mg/ml gentamicin. Parasites were incubated at 37° C. in a gas mixture of 5% oxygen, 5% carbon dioxide, and 90% nitrogen.
Parasite sensitivity to novel compounds were determined using a SYBR Green (Invitrogen S1046) drug assay protocol. P. falciparum of various clinic stains were cultured with compounds at concentrations in a series of dilution in a clear, sterile 96-well plate for 72 hours. Subsequently, 150 μl of the cultures were transferred to a black 96-well plate and placed in the freezer for red blood cell lysis. The plates were thawed and suspended in a Sybr Green Lysis buffer. GraphPad Prism was used to analyze the raw data collected […]. Drug concentrations were converted to logarithms, normalized, and then curve fitted by non-linear regression to obtain EC50 values.
Plasmodium falciparum: parasites were cultured in human red cells. Drug assays were run in 96 well plates at a total volume of 200 μl. Assays were set up at a starting parasitemia (percent of infected red cells) of 0.5%. Test compounds were plated at concentrations of 2778 nM to 0.4 nM. The test plates were grown under standard low oxygen conditions at 37° C. for 72 hours. At that time the plates were prepared for growth determination, first the plates were frozen and thawed to lyse the red blood cells, 150 μl of the lysed thawed culture was transferred to a black 96 well plate, and mixed in a lysis buffer with SYBR green DNA dye. The fluorescence of each well was recorded in a plate reader with excitation wavelength 490 nm and emission wavelength 530 nm and normalized relative to DMSO control. The EC50s were determined using Prism software.

The target of assay [3] is T4, β5i in Karpas 1106P cells (Homo sapiens, UniProt P28062).
T4 construct: endogenous in cells; host or cells: Karpas 1106P
Briefly: Intracellular β5i inhibition in Karpas 1106P cells ((Ac-ANW)2-R110). The note with it: 2 hours treatment. The class given is cell-based. From the text: (§1) Data were average of three independent experiments.
(§2) IC50 values with both substrates were identical and indicated cell-penetrating ability. […] No β5i activity was detected in HepG2 cells using (Ac-ANW)2—R110 as substrate (FIG. 2A).

For the next assay, the system named is β5 in Karpas 1106P cells. Briefly: Intracellular β5 inhibition in Karpas 1106P cells (suc-LLVY-luciferin). The assay is classed as cell-based. The note with it: 2 hours treatment.
Text: as §1, §2

For a further assay, the target named is T5, β5c in HepG2 cells (Homo sapiens, UniProt P28074).
T5 construct: endogenous in cells; host or cells: HepG2
Briefly: Intracellular β5c inhibition in HepG2 cells (suc-LLVY-luciferin). The class given is cell-based. The note with it: 2 hours treatment, read-out: IC50 HepG β5c.
Text: as §1, §2

The subject of assay [4] is MM1.S multiple myeloma cells. Briefly: Cell viability assay, MM.1S. The assay is classed as cell-based. The note with it: Homo sapiens, cytotoxicity, 72 hours. As for the experimental part:
(§3) Multiple myeloma cell lines MM.1 S (200,000 cells/mL) and RPMI 8226 (200,000 cells/mL), B lymphoma cell line Karpas1106P (800,000 cells/mL), and liver cancer cell line HepG2 (12,000 cells/mL) were used to determine the cytotoxicity of compounds. Cells were cultured at 37° C. in a humidified air/5% CO2 atmosphere in medium supplemented with 10% fetal bovine serum, except for the medium for Karpas-1106P cells which contained 20% fetal bovine serum, and 100 units/ml penicillin/100 […] streptomycin in RPMI 1640 medium. 12,000 cells/well. Cells plated in a 96-well plate were treated with compounds at the indicated concentrations for 72 hours at 37° C. in a tissue culture incubator with 5% CO2. Viable cells were counted using Cell-titer/glom assay kit. EC50s were calculated using PRISM (Graphpad).

Assay [5] deals with RPMI 8226 multiple myeloma cells. Put plainly: Cell viability assay, RPMI 8226. The class given is cell-based. The note with it: Homo sapiens, cytotoxicity, 72 hours. As to the method:
as §3

Assay [6] relates to Karpas1106P B lymphoma cells. Briefly: Cell viability assay, Karpas1106P. The class given is cell-based. The note with it: Homo sapiens, Karpas-1106P; cytotoxicity, 72 hours. As to the method: as §3
A further assay concerns HepG2 liver cancer cells. Briefly: Cell viability assay, HepG2. The assay is classed as cell-based. The note with it: Homo sapiens, cytotoxicity, 72 hours. As to the method: as §3

Turning to `Cc1ccc(S(=O)(=O)N[C@@H](CC(=O)NC(C)(C)C)C(=O)NCCNC(=O)c2cc(-c3ccccc3F)ccc2F)cc1` [PKS21221], the IC50 – broadly, the concentration at which inhibition is half-maximal – in [1] (IC50 Hu i-20S (Ac-ANW-AMC), β5i, substrate Ac-ANW-AMC) was 4.1 nM; in [1] (b406, read-out: IC50 against β5i) it was 2.4 nM; in [2] it was 106 nM; in assay [2] (b406, read-out: IC50 against β5c) it was 70 nM; in assay [3] it was 172 nM; in the assay on β5 in Karpas 1106P cells, 118 nM. The IC50 on β5c in HepG2 cells was determined as 2000 nM. For the same molecule, the “α for i-20S (β5i)” value on hu i-20S β5i (fit to equation for noncompetitive inhibitors) is given as 0.26. Further, the “modality of inhibition of β5i” value at hu i-20S β5i (with respect to substrate) is listed as “noncompetitively inhibits; also recorded: noncompetitive”. The EC50 (usually the concentration that produces a half-maximal response) in the assay on Plasmodium falciparum turned out to be 0.55 nM; in [4], 95 nM; in assay [5], 75 nM; in [6], 840 nM; in the assay with HepG2 liver cancer cells, 3000 nM.
